# From US9371265B2, “Compositions and methods related to inhibitors of JAK kinase” (EP PHARMA, INC., priority 2012, dated 2016)
# What was measured:
# caspase 3 = assay: Caspase 3 activation in SU-DHL-1 cells (Luminex multiplex); format: cell-based, human; conditions: 24 hours, dose-dependent
# Method: FIGS. 7A-7C. EP009 reduces ALCL cell viability through induction of caspase 3 mediated apoptosis. (A) SUP-M2, SU-DHL-1 or H2228 cells were cultured with increasing amounts of EP009 (0-10 μM) for 72 hours and cell viability measured with the MTS tetrazolium salt assay. Values represent mean absorbance (OD490-OD650 nm) normalized to vehicle (PBS) treated control cells, while error bars represent the standard deviation (n=3). (B) SU-DHL-1 cells were treated with vehicle (PBS) or increasing amounts of EP009 (0-50 μM) for 24 hours. Cells were then lysed, clarified, and subjected to Luminex multiplex analysis to detect activated caspase 3 and (C) cleaved PARP. Values represent MFI normalized to corresponding GAPDH MFI, while error bars represent the standard deviation (n=2). Representative data from three independent experiments are shown. Statistical significance was determined using Student's t-test. (*, p<0.05).
# The MILLIPLEX MAP 8-plex Multi-Pathway Signaling Phosphoprotein kit (Millipore) was used to detect phosphorylated ERK1/2 (Thr185/Tyr187), STAT3 (Ser727), JNK1/2 (Thr183/Tyr185), p70 S6 kinase (Thr412), IκBα (Ser32), STAT5A/B (Tyr694/699), CREB (Ser133), and p38 (Thr180/Tyr182). The MILLIPLEX MAP 5-plex STAT Phosphoprotein kit (Millipore) was used to detect phosphorylated STAT1 (Tyr701), STAT2 (Tyr690), STAT3 (Tyr705), STAT5A/B (Tyr694/699), and STAT6 (Tyr641). […]
# [1] = Stability in mouse plasma (LC-MS/MS); format: in vitro ADME; conditions: indicated concentrations and incubation time points
# Method: FIG. 11 illustrates the dose-dependent effect of (FIG. 11A) freshly prepared EP-009(P) and (FIG. 11B) EP-009(P) stored in aqueous conditions for 48 hr at room temperature on IL-2/JAK3-dependent Kit225 cell viability. FIG. 12 illustrates LC-MS/MS detection of EP-009 (5 ng/ml) in mouse plasma at a retention time of 1.91 min.
# AURKB = AURKB (Homo sapiens, UniProt Q96GD4); assay: Kinase panel: AURKB; format: biochemical; conditions: 10 μM EP009
# Method: (§1) Achieving JAK3 selectivity remains a significant challenge in the development of new small molecules for the treatment of cancer and immune-derived diseases. As such, the inventors employed cell-based screening assays of small-molecule libraries based upon the chemical scaffold of the established JAK3 inhibitor NC1153 (Stepkowski et al., J Immunol. (2005), 175(7):4236-4246) EP009 (FIG. 2A) was selected as a lead compound due to improved intrinsic stability (>95% purity in various solvents at 37° C. for 24 hours; FIG. 3) and high-degree of JAK3 selectivity. To test JAK3 versus JAK2 specificity of EP009, the IL-2/JAK3-dependent Kit225, and IL-3/JAK2-dependent BaF/3 cell lines were used. Kit225 and BaF/3 cells growing in the presence of IL-2 or IL-3, respectively, were treated with ascending concentrations of EP009 for 12 hours and cellular JAK3 and JAK2 tyrosine phosphorylation levels detected by Western blot analysis (FIGS. 2B and 2C). Following densitometric analysis, EP009 was determined to dose-dependently reduce IL-2-mediated JAK3 tyrosine phosphorylation with a cellular 50% inhibitory concentration (IC50) between 10 and 20 μM (FIG. 2B). […] To globally evaluate specificity, the inhibitory activity of EP009 was measured against a panel of protein kinases distributed throughout the kinome using the scanEDGE profiling service (KINOMEscan). […]
# CDK11 = CDK11 (Homo sapiens, UniProt Q9BWU1); assay: Kinase panel: CDK11; format: biochemical; conditions: 10 μM EP009
# Method: as §1
# CDK2 = CDK2 (Homo sapiens, UniProt P24941); assay: Kinase panel: CDK2; format: biochemical; conditions: 10 μM EP009
# Method: as §1
# CDK7 = CDK7 (Homo sapiens, UniProt P50613); assay: Kinase panel: CDK7; format: biochemical; conditions: 10 μM EP009
# Method: as §1
# CDK9 = CDK9 (Homo sapiens, UniProt P50750); assay: Kinase panel: CDK9; format: biochemical; conditions: 10 μM EP009
# Method: as §1
# CSF1R = CSF1R (Homo sapiens, UniProt P07333); assay: Kinase panel: CSF1R; format: biochemical; conditions: 10 μM EP009
# Method: as §1
# FGFR2 = FGFR2 (Homo sapiens, UniProt P21802); assay: Kinase panel: FGFR2; format: biochemical; conditions: 10 μM EP009
# Method: as §1
# MAP3K4 = MAP3K4 (Homo sapiens, UniProt Q9Y6R4); assay: Kinase panel: MAP3K4; format: biochemical; conditions: 10 μM EP009
# Method: as §1
# MKNK1 = MKNK1 (Homo sapiens, UniProt Q9BUB5); assay: Kinase panel: MKNK1; format: biochemical; conditions: 10 μM EP009
# Method: as §1
# MLK1 = MLK1 (Homo sapiens, UniProt P80192); assay: Kinase panel: MLK1; format: biochemical; conditions: 10 μM EP009
# Method: as §1
# PAK2 = PAK2 (Homo sapiens, UniProt Q13177); assay: Kinase panel: PAK2; format: biochemical; conditions: 10 μM EP009
# Method: as §1
# PAK4 = PAK4 (Homo sapiens, UniProt O96013); assay: Kinase panel: PAK4; format: biochemical; conditions: 10 μM EP009
# Method: as §1
# PKAC-alpha = PKAC-alpha (Homo sapiens, UniProt P17612); assay: Kinase panel: PKAC-alpha; format: biochemical; conditions: 10 μM EP009
# Method: as §1
# FGFR2, sequence (P21802 22-821): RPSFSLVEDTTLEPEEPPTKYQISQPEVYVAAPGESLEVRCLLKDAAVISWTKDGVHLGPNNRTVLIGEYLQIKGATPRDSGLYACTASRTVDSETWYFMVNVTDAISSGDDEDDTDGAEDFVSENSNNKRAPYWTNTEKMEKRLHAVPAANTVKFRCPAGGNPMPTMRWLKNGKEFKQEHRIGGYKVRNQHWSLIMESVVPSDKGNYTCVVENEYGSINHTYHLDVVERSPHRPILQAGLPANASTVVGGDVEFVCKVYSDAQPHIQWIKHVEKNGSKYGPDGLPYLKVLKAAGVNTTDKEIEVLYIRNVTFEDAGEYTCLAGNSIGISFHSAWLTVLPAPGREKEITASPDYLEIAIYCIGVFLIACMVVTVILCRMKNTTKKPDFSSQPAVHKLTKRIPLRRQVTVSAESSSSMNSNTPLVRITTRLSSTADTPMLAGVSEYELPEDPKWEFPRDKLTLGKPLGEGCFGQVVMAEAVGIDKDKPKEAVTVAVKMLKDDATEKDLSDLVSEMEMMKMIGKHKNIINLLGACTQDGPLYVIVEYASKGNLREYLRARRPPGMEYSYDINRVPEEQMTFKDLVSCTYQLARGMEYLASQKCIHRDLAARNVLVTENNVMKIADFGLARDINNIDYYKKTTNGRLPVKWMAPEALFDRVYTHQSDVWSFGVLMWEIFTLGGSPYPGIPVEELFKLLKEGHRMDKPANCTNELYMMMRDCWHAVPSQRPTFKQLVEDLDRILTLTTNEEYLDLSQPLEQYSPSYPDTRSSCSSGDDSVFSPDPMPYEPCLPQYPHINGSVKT
# MAP3K4, sequence (Q9Y6R4 whole entry): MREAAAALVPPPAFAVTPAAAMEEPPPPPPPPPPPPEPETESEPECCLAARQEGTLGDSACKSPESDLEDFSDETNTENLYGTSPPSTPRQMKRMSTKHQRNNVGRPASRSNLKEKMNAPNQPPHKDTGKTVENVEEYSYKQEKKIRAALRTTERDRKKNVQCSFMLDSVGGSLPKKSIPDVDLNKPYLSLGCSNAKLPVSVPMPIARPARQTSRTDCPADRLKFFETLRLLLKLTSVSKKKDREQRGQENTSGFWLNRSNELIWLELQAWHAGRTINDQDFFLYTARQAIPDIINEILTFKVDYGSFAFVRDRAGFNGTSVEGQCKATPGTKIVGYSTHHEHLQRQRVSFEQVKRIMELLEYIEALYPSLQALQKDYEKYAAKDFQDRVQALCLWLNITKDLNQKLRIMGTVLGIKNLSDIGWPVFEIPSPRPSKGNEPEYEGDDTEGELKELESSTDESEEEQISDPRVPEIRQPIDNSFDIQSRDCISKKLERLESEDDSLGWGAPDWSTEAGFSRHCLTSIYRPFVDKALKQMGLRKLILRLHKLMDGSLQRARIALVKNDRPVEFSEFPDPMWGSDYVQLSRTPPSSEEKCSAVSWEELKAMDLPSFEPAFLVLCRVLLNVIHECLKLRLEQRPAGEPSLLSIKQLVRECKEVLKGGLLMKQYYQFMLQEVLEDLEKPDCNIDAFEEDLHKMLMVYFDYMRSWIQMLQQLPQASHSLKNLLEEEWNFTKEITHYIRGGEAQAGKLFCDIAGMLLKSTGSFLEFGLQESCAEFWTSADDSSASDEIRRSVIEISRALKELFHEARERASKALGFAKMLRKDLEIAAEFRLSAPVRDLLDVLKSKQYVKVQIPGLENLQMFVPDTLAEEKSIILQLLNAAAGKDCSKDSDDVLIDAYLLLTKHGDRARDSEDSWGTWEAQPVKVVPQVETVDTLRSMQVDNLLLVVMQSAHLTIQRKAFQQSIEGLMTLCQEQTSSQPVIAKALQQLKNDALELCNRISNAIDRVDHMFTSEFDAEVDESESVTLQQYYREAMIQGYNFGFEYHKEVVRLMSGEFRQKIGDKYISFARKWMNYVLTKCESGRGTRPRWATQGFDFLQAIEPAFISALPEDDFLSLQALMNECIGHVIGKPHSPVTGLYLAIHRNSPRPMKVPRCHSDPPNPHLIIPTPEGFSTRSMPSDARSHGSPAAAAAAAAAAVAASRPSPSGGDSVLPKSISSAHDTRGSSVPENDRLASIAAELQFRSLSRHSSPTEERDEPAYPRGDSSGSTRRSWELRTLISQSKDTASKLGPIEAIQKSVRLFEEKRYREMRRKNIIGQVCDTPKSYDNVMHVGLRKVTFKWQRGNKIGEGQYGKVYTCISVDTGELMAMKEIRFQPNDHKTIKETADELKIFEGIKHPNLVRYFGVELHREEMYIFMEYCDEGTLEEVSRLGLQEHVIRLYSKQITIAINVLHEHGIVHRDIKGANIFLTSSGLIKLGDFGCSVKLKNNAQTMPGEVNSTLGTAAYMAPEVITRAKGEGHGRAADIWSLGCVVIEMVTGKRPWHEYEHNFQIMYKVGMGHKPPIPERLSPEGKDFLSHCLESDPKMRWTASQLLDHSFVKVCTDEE
# CDK7, sequence (P50613 whole entry): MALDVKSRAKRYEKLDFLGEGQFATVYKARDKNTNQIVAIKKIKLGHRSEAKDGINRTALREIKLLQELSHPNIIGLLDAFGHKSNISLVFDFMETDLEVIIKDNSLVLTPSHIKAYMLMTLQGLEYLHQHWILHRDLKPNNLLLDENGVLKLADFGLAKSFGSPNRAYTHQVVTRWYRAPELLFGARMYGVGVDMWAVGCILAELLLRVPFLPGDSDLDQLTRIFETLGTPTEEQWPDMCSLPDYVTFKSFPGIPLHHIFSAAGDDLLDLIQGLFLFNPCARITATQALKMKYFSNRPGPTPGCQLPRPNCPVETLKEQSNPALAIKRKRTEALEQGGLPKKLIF
# CDK9, sequence (P50750 whole entry): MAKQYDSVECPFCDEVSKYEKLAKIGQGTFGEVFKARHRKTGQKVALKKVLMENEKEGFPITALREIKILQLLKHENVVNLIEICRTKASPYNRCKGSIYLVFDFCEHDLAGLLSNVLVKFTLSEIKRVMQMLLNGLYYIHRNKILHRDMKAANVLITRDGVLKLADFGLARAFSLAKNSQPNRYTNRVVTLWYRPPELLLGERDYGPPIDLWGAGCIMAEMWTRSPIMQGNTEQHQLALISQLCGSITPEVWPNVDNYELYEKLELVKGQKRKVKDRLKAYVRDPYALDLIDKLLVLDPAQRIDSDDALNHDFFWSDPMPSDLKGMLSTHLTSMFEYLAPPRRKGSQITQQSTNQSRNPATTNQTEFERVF
# MKNK1, sequence (Q9BUB5 whole entry): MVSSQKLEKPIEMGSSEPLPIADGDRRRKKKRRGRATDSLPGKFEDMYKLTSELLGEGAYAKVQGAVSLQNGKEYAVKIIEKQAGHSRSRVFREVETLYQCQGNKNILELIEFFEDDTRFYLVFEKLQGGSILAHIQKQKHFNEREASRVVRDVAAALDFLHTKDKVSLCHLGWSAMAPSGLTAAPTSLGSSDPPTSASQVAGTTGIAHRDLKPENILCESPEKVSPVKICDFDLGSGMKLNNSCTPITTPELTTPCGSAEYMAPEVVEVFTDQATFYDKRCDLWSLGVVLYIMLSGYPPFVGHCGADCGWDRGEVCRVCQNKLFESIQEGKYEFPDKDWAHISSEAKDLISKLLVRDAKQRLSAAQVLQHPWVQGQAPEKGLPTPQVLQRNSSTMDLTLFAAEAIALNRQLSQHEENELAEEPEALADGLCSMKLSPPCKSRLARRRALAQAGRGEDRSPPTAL
# AURKB, sequence (Q96GD4 whole entry): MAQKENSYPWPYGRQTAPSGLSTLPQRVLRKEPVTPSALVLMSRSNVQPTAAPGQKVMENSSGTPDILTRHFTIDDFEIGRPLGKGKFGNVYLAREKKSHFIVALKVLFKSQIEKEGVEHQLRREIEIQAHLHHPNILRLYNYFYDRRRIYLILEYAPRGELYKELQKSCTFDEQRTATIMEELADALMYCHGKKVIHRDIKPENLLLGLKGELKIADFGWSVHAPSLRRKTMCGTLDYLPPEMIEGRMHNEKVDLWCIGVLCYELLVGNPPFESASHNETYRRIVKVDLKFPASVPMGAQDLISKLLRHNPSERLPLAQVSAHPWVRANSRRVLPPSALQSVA
# CDK11, sequence (Q9BWU1 whole entry): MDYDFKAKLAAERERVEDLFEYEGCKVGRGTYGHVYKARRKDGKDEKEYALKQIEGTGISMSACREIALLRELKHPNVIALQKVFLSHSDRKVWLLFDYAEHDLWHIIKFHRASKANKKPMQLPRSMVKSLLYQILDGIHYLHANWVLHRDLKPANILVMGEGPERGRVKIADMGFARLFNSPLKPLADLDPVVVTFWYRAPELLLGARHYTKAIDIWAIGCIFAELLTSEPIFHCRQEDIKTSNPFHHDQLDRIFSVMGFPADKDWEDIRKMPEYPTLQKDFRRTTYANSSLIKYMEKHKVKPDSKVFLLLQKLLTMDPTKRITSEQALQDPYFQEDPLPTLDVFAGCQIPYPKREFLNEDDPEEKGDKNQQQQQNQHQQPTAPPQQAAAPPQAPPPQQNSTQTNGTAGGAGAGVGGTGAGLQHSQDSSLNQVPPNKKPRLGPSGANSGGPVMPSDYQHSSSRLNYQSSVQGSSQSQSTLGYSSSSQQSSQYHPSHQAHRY
# PAK2, sequence (Q13177 whole entry): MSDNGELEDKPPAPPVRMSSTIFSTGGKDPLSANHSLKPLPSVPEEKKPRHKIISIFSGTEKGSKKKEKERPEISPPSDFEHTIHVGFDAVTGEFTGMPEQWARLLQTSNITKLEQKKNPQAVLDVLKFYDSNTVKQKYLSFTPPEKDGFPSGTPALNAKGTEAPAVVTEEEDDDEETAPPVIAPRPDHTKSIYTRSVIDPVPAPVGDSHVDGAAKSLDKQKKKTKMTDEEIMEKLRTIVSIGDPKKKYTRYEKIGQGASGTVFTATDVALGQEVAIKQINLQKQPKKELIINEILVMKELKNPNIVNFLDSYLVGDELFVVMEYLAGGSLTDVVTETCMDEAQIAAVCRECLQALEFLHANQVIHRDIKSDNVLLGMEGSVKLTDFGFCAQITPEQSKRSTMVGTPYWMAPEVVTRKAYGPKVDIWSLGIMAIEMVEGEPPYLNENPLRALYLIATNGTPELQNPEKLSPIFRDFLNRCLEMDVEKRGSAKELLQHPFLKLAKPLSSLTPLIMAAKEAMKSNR
structure (smiles),measurement,setting,value
"C=C1CCCCCCCCCC(CO)C1=O (stereo not drawn) [EP009, 2-(Hydroxymethyl)-12-methylenecyclododecanone]",caspase-3 activation,caspase 3,increased
same,stability in mouse plasma,[1],stable and readily detected
same,Kinase Activity (% of Control),AURKB,99 % of Control
same,Kinase Activity (% of Control),CDK11,100 % of Control
same,Kinase Activity (% of Control),CDK2,98 % of Control
same,Kinase Activity (% of Control),CDK7,99 % of Control
same,Kinase Activity (% of Control),CDK9,90 % of Control
same,Kinase Activity (% of Control),CSF1R,94 % of Control
same,Kinase Activity (% of Control),FGFR2,100 % of Control
same,Kinase Activity (% of Control),MAP3K4,87 % of Control
same,Kinase Activity (% of Control),MKNK1,100 % of Control
same,Kinase Activity (% of Control),MLK1,100 % of Control
same,Kinase Activity (% of Control),PAK2,100 % of Control
same,Kinase Activity (% of Control),PAK4,100 % of Control
same,Kinase Activity (% of Control),PKAC-alpha,100 % of Control
